US20250120928A1 (University of Maryland, Baltimore, priority 2021, published 2025)

Tests used:
unstimulated BMMØs = test: MTS assay; type: cell-based, C57BL/6J mice; conditions: Mus musculus; unstimulated BMMØs treated for 48 hours; read-out: IC50 (MTS assay, cellular proliferation)
Method: Cells were then washed with PBS and 50 μL of MTS solution was added to each well and incubated for 1 hour. The optical density (O.D.) of the solution was measured using a SpectraMax iD3 microplate reader at 570 nm. The percentage of cell proliferation was measured as the ratio of O.D. at 570 nm to no treatment control. IC50 values were calculated using GraphPad Prism 9 program based on a sigmoidal dose-response equation.

BMMØs = type: cell-based; conditions: 0-30 μM
Method: (§1) Three hours later, cells were stimulated with 100 ng/mL LPS. After 48 hours, cells were lifted using Versene and washed with cold PBS supplemented with 1% FBS and 0.4% 0.5 M EDTA (Quality Biological, Gaithersburg, MD). FcR blocking was performed with purified anti-mouse CD16/32 antibody (#101301) (Biolegend, San Diego, CA) prior to staining with Annexin V-FITC and propidium iodide kit (#640914) (BioLegend, San Diego, CA) for apoptosis and cell death. Cell staining was conducted according to BioLegend protocols for flow cytometry. Flow cytometry data were collected using a Becton Dickinson LSR II or Becton Dickinson Canto II flow cytometer. Flow plots and data processing was done using FCS Express 7 Flow Cytometry De Novo Software (De Novo, Glendale, CA).
as §1, with “After” for “Three hours later, cells were stimulated with 100 ng/mL LPS. After”

[1] = tested on: T cells (CD3+) from splenocytes; test: Splenocyte apoptosis and cell death by AV/PI flow cytometry, T cells; type: cell-based; conditions: concentrations up to 30 μM
[2] = tested on: LPS-induced endotoxemia mouse model; test: Plasma cytokine analysis in the LPS-induced endotoxemia mouse model; type: in vivo, male C57BL/6J mice; conditions: 50 mg/kg i.p. 3 hours before 20 mg/kg LPS i.p.; blood 3 hours post-LPS
Method: Terminal cardiac blood draws from the left ventricle occurred 3 hours post LPS injections using a 25 g needle and 1 mL syringe into an EDTA coated lavender blood collection tube (BD Medical, Franklin Lakes, NJ). Blood samples were centrifuged at 1000×g for 10 minutes within 30 minutes of collection. Plasma was extracted and diluted 10,000-fold for ELISA IL-6 measurement and diluted 10-fold for TNFα measurements.
Terminal cardiac blood draws from the left ventricle occurred 3 hours post LPS injections using a 25 g needle and 1 mL syringe into an EDTA coated lavender blood collection tubes (BD Medical, Franklin Lakes, NJ). Blood samples were centrifuged at 1000×g for 10 minutes within 30 minutes of collection. Plasma was extracted and diluted 10,000-fold for ELISA IL-6 measurement and diluted 10-fold for TNFα measurements. MAGPIX Luminex bead-based multiplex ELISA (Thermo Fisher Scientific, Waltham, MA) of mouse plasma (diluted 100-fold) measured for 26 various cytokines and chemokines and data was analyzed using the Luminex xPONENT software (Millipore) as per manufacturer's instructions. The 26-plex panel include murine IL-1β, IL-2, IL-4, IL-5, IL-6, IL-9, IL-10, IL-12p70, IL-13, IL-17A (CTLA-8), IL-18, IL-22, IL-23, IL-27, GM-CSF, IFNγ, TNFα, MCP-1 (CCL2), MIP-1α (CCL3), MIP-10 (CCL4), RANTES (CCL5), MCP-3 (CCL7), Eotaxin (CCL11), GROα (CXCL1), MIP-2a (CXCL2), and IP-10 (CXCL10).

Compound: O=C(CCCCCCC(=O)Nc1ccc(CO)cc1)NO [SAHA-OH, N^1-hydroxy-N^8-(4-(hydroxymethyl)phenyl)octanediamide]
- IC50 (unstimulated BMMØs): 1300 nM
- apoptosis (AV+/PI−) over concentration (BMMØs): apoptosis induction
- viability (AV−/PI−) over concentration (BMMØs): concentration-dependent viability reduction
- toxicity for the T cell population [1]: minimal toxicity
- reduction of plasma IL-6 [2]: about 50%
- reduction of plasma TNFα [2]: about 50%
